Reference: patent US7264314B2, “Adrenocorticotropic hormone analogs and related methods” (priority 2004, dated 2007)

Legend:
[1] = system: serum corticosterone in dexamethasone-suppressed mice; experiment: in vivo Serum Corticosteroid Induction Assay; set-up: species or system FVB/N mice; settings: for Percent reduction in serum corticosteroid: compared to unmodified mACTH(1–24), 1 μg s.c., blood one hour after administration
Procedure: An in vivo Serum Corticosteroid Induction Assay measures the level of corticosteroid or corticosterone in the blood stream of a subject. More specifically, the in vivo Serum Corticosteroid Induction Assay can include the following steps: first, an agent to suppress endogenous ACTH production was administered to a mouse subject, such as an intraperitoneal injection of dexamethasone; second, after waiting a suitable period of time for suppression of endogenous ACTH production (e.g., 1.5–2.0 hours), a test compound can be administered to the mouse by a suitable method, such as intraperitoneal or subcutaneous injection; and third, after waiting a suitable period of time (e.g., 1 hour) for action of the injected test compound, a blood sample can be taken from the subject and the level of serum corticosterone can be determined by a suitable method, such as a competitive radioimmunoassay using ^125I RIA kit (ICN, Costa Mesa, Calif.). Example 1 describes a murine in vivo Serum Corticosteroid Induction Assay in detail.
The corticosteroid or corticosterone secretion induced in vivo by an ACTH analog compound was compared to the level of corticosteroid secretion produced by an unmodified ACTH compound by measuring blood serum corticosteroid after administering either the ACTH or ACTH analog as test compounds. […] ACTH analog compositions with decreased function were identified by measuring corticosterone levels using standard radioimmunoassay (RIA) analysis on blood samples collected one hour after administering the mACTH(1–24) or ACTH analog compound to dexamethasone-suppressed mice. In FIG. 1, the potency of various ACTH analog peptides is expressed as per cent induction of corticosterone, with mouse ACTH being 100%. […] The percent of corticosterone induction 12 of ACTH analog Compounds in Samples 2–10 are shown as a percentage of the concentration of serum corticosterone 20 measured for unmodified mACTH(1–24) in the in vivo Serum Corticosteroid Adrenal Induction Assay. The structural modifications and measured percentage reduction in serum measured for Samples 2–10 in FIG. 1 are shown in Table 3 below.
The in vivo Serum Corticosteroid Induction Assay was performed according the following method. First, two to three month-old male FVB/N mice from our colony, five per group, were injected intraperitoneally with dexamethasone (0.4 mg/0.1 ml PBS per mouse; Sigma, St. Louis, Mo.) to suppress their endogenous ACTH production. See Hajos, G T et al., “Studies of the potency of polypeptides with ACTH action by a new method based on continuous measurement of plasma corticosterone,” Steroids Lipids Res 3:225–228 (1972), Costa, J L, et al., “Mutational analysis of evolutionarily conserved ACTH residues,” Gen Comp Endocrinol, 136:12–16 (2004), and Karpac, J, et al., “Development, Maintenance, and Function of the Adrenal Gland in Early Postnatal Pro-opiomelanocortin Null Mutant Mice,” Endocrinology (2005), published online ahead of print Feb. 24, 2005, all of which are incorporated herein by reference.
Second, ninety to one hundred twenty minutes later, the dexamethasone-suppressed mice were injected subcutaneously between the shoulder blades with either unmodified mACTH(1–24) or one of several ACTH analog peptide compounds (1 μg/0.1 mL PBS/0.5% BSA), or with vehicle alone (control) (0.1 mL PBS/0.5% BSA). The following ACTH analog peptide compounds were administered to separate mice: 1: murine ACTH1–24; 2: V26F,E30K; 3: P19W,K21E,Y23R; 4: E30K,P36R; 5: ALA19–24; 6: V26F,P36R; 7: P19W, K21E; 8: P19W,K21A,delY23; 9: P19W,K21A; 10: KRRP16-19RMW (AT814) (SEQ ID NO:20).
Third, one hour later, blood was collected within less than 1 minute from a small incision in the tail, and serum was flash-frozen and stored at −80° C. until assayed. Serum corticosterone was determined by competitive radioimmunoassay (^125I RIA kit; ICN, Costa Mesa, Calif.) according to the manufacturer's recommendations. One microliter of serum was used per assay sample. […]

[2] = system: corticosterone production by explanted mouse adrenal halves; experiment: in vitro Serum-free Adrenal Inhibition Assay; type: cell-based; settings: in vivo by Example 1, in vitro by Example 4
Procedure: A series of separate in vitro Serum-Free Adrenal Corticosteroid Inhibition Assay were performed to identify ACTH analogs that inhibit ACTH-induced adrenal hormone production in vitro. The concentration of corticosterone was measured according to the procedure of Example 4 in a serum-free culture medium containing explanted adrenal membrane and unmodified ACTH, AT814 ACTH analog (SEQ ID NO:20), or a combination of ACTH and AT814 at 100 ng/mL each. […] Corticosterone levels were taken at 2.0 hours after the adrenal membrane was placed in the serum free M199 medium, and each corticosterone level in Table 5 is an average of five samples.
The in vitro Serum-free Adrenal Inhibition Assay was performed according the following method. First, adrenals were removed from mice, dissected free of fat, and cut in half. See Costa, J L, et al., “Mutational analysis of evolutionarily conserved ACTH residues,” Gen Comp Endocrinol. 136:12–16 (2004); and Weber, M M, et al., “Postnatal overexpression of insulin-like growth factor II in transgenic mice is associated with adrenocortical hyperplasia and enhanced steroidogenesis,” Endocrinology 140:1537–1543 (1999), incorporated herein by reference.
Second, each adrenal half was placed into an individual well of a 4-well dish, one dish per mouse. Adrenal halves were incubated at 5% CO2, 37° C., in 0.5 ml serum-free medium (M199; Invitrogen) for 30 minutes to equilibrate.
Third, medium was removed and replaced by 0.5 ml M199 containing ACTH, AT814, or both, at 100 ng/ml each; controls had no peptides added.
Fourth, after 2 hours of incubation, the medium was removed, pooled for all four halves from each mouse, and assayed by corticosterone using standard RIA methods. corticosterone was determined by competitive radioimmunoassay (^125I RIA kit; ICN, Costa Mesa, Calif.) according to the manufacturer's recommendations. One microliter of serum was used per assay sample. Samples were run in duplicates.

| Substance | Percent reduction in serum corticosteroid [1] | also measured |
| --- | --- | --- |
| (E30K, P36R)mACTH (SYSMEHFRWGKPVGKKRRPVKVYPNVAENKSAEAFRLEF; Corticotropin; UniProt P01193 124-162, looked up, variant E30K P36R) [Sample 4] | 41.5% |  |
| (P19W, K21A)mACTH (SYSMEHFRWGKPVGKKRRWVAVYPNVAENESAEAFPLEF; Corticotropin; UniProt P01193 124-162, looked up, variant P19W K21A) [Sample 9] | 83.4% |  |
| (P19W, K21A, delY23)mACTH (SYSMEHFRWGKPVGKKRRWVAVPNVAENESAEAFPLEF; Corticotropin; UniProt P01193 124-162, looked up, variant P19W K21A Y23*) [Sample 8] | 76.0% |  |
| (P19W, K21E)mACTH (SYSMEHFRWGKPVGKKRRWVEVYPNVAENESAEAFPLEF; Corticotropin; UniProt P01193 124-162, looked up, variant P19W K21E) [Sample 7] | 61.1% |  |
| (P19W, K21E, Y23R)mACTH (SYSMEHFRWGKPVGKKRRWVEVRPNVAENESAEAFPLEF; Corticotropin; UniProt P01193 124-162, looked up, variant P19W K21E Y23R) [Sample 3] | 36.5% |  |
| (PVKVYP19-24AAAAA)mACTH [Sample 5] | 51% | in vivo activity in excess of the in vitro activity of unmodified mACTH (FIG. 5) ([1]; method of Example 1): about 50%; in vivo activity, % corticosterone induction relative to mACTH(1–24) (FIG. 5) ([1]; method of Example 1): greater relative to both mACTH and to other ACTH analogs; in vitro activity compared with in vivo activity (FIG. 5) [2]: increased serum half life measured in vivo |
| (V26F, E30K)mACTH (SYSMEHFRWGKPVGKKRRPVKVYPNFAENKSAEAFPLEF; Corticotropin; UniProt P01193 124-162, looked up, variant V26F E30K) [Sample 2] | 18.3% |  |
| (V26F, P36R)mACTH (SYSMEHFRWGKPVGKKRRPVKVYPNFAENESAEAFRLEF; Corticotropin; UniProt P01193 124-162, looked up, variant V26F P36R) [Sample 6] | 59.3% |  |
